Common to all, as to assay type: biochemical
The target in one experiment is PI3K-alpha (Homo sapiens, UniProt P42336). The experiment in a line: PI3K-alpha fluorescence polarization assay. Particulars: read-out: PI3Kα Avg. IC50.
The target in the next experiment is T1, human TOR (Homo sapiens, UniProt P42345).
T1 construct: FLAG
Put plainly: mTOR enzyme assay (DELFIA, His6-S6K substrate). Particulars: read-out: mTOR Kinase Avg. IC50.

The next experiment addresses PI3K-gamma (Homo sapiens, UniProt P48736). The experiment in a line: PI3K-gamma fluorescence polarization assay. Particulars: PI3Kγ Avg. IC50. In outline:
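FP competition read-out: PIP3 produced displaces BODIPY-TMR-IP4 (5 nM) from GST-GRP1 PH domain (100 nM). Kinase step: 5 ng enzyme, 2.5 μM diC8-PIP2, 25 μM ATP, pH 7 HEPES/MgCl2, 1 h, 25° C; EDTA stop.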
A general note: Polarisation of emitted light reports the rotation of a fluorescent probe.

SMILES strings stand for the structures.

Sequence of PI3K-alpha (P42336 whole entry, species assumed): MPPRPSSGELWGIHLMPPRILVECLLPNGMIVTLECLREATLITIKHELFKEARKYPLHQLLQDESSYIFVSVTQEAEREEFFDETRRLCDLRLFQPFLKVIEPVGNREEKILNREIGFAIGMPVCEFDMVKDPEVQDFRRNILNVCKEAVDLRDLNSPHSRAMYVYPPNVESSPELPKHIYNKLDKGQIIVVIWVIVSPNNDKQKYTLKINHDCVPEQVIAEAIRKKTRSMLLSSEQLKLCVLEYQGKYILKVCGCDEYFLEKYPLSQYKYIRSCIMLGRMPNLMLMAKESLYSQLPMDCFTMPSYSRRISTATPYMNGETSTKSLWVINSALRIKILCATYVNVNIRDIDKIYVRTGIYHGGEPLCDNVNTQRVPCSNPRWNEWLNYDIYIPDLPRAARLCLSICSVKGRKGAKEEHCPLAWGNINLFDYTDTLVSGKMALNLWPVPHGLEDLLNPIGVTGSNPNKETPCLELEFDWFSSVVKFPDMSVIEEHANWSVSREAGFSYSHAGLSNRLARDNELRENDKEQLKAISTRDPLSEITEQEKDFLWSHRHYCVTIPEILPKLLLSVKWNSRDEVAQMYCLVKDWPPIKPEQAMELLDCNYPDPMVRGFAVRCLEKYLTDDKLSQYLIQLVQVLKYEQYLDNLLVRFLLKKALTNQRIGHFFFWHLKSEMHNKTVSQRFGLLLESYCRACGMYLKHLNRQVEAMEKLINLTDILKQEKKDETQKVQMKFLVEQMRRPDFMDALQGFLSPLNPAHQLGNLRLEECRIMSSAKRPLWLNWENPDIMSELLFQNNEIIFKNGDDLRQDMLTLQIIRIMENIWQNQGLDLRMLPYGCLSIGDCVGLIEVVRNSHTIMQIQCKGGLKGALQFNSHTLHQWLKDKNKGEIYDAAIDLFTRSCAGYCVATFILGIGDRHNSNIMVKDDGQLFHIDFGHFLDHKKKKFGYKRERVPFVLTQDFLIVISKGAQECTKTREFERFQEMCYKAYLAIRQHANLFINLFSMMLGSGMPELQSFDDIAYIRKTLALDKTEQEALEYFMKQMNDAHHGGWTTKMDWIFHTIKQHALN
Sequence of PI3K-alpha (P27986 whole entry partner, species assumed): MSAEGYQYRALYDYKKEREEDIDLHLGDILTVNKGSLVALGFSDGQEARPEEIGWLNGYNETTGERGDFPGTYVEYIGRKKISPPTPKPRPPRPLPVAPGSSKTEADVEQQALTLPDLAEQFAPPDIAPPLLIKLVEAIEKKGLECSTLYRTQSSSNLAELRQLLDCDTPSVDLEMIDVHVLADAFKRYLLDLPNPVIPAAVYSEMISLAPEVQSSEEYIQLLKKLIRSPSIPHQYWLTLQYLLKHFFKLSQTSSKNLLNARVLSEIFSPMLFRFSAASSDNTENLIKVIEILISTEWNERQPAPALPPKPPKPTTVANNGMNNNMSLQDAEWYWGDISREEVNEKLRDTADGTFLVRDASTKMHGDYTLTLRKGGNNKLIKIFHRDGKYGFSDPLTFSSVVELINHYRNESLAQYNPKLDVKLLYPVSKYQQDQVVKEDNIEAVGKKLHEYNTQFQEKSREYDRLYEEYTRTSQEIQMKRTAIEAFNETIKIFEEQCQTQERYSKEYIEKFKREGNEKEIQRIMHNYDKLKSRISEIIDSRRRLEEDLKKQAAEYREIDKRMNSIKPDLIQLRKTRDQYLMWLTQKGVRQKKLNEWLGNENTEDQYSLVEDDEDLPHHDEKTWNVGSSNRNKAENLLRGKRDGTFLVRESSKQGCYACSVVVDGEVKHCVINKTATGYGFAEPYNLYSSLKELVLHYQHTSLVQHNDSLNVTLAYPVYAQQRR
Sequence of PI3K-gamma (P48736 whole entry, species assumed, the tested form may be a part): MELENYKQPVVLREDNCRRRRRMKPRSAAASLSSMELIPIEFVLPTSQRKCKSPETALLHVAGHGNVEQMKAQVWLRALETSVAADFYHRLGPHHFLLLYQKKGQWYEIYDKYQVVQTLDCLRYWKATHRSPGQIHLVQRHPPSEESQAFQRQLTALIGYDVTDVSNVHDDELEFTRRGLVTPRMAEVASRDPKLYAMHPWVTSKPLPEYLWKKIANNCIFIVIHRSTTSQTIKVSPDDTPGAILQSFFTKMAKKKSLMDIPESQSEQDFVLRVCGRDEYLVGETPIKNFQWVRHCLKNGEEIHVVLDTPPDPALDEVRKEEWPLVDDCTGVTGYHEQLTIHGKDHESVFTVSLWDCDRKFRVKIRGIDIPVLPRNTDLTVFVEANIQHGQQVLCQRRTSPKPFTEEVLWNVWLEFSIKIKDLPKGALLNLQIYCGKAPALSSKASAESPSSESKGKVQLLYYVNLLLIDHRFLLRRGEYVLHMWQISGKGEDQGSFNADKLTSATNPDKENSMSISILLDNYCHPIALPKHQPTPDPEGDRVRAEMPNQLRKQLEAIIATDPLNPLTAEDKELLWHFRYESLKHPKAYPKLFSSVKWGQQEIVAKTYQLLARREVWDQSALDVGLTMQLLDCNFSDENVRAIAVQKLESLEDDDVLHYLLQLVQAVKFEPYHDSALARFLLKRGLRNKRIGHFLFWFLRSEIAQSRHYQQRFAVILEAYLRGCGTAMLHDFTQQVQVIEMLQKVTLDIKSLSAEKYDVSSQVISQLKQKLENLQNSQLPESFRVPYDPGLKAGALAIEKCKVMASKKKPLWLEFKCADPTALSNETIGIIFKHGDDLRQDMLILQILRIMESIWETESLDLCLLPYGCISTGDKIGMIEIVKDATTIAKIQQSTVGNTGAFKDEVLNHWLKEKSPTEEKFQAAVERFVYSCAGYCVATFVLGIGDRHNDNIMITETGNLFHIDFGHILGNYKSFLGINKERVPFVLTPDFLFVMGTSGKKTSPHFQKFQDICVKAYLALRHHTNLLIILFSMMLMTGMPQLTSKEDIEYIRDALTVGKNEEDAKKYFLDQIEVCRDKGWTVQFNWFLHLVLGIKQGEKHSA

As for `O=C1C(=Cc2c(-c3ccccc3)n(Cc3ccccc3)c3ccccc23)Oc2cc(O)cc(O)c21` [Example 149, 2-[(1-benzyl-2-phenyl-1H-indol-3-yl)methylene]-4,6-dihydroxy-1-benzofuran-3(2H)-one], the figures for the IC50 on PI3K-alpha, at human TOR and on PI3K-gamma were 1590 nM, 6150 nM and 2010 nM, respectively.
Regarding `CC(C)Cn1c(-c2ccccc2)c(C=C2Oc3cc(O)cc(O)c3C2=O)c2ccccc21` [Example 150, 4,6-dihydroxy-2-[(1-isobutyl-2-phenyl-1H-indol-3-yl)methylene]-1-benzofuran-3(2H)-one], the IC50 (commonly the concentration needed to halve the response being measured) is 2230 nM on PI3K-alpha, 6450 nM at human TOR and 2190 nM against PI3K-gamma.
On the same counts, the results for `COCCn1c(-c2ccccc2)c(C=C2Oc3cc(O)cc(O)c3C2=O)c2ccccc21` [Example 151, 4,6-dihydroxy-2-{[1-(2-methoxyethyl)-2-phenyl-1H-indol-3-yl]methylene}-1-benzofuran-3(2H)-one] are 2110 nM, 710 nM and 4220 nM.
On to `O=C1C(=Cc2c(-c3ccccc3)n(CC3CC3)c3ccccc23)Oc2cc(O)cc(O)c21` [Example 152, 2-{[1-(cyclopropylmethyl)-2-phenyl-1H-indol-3-yl]methylene}-4,6-dihydroxy-1-benzofuran-3(2H)-one], for which the IC50 at PI3K-alpha was 4180 nM; at human TOR it was 1450 nM; against PI3K-gamma it was 4470 nM.
In the case of `N#CCCCn1c(-c2ccccc2)c(C=C2Oc3cc(O)cc(O)c3C2=O)c2ccccc21` [Example 155, 4-{3-[(4,6-dihydroxy-3-oxo-1-benzofuran-2(3H)-ylidene)methyl]-2-phenyl-1H-indol-1-yl}butanenitrile], the 50% inhibitory concentration (IC50) on PI3K-alpha is 516 nM; on human TOR, 80 nM; against PI3K-gamma, 5350 nM.
Turning to `CN(C)CCCn1c(-c2ccccc2)c(C=C2Oc3cc(O)cc(O)c3C2=O)c2ccccc21` [Example 156, 2-({1-[3-(dimethylamino)propyl]-2-phenyl-1H-indol-3-yl}methylene)-4,6-dihydroxy-1-benzofuran-3(2H)-one], the figures for the IC50 on PI3K-alpha, at human TOR and at PI3K-gamma were 1290 nM, 1600 nM and 6000 nM, respectively.
Take `O=C1C(=Cc2c(-c3ccccc3)n(CCN3CCCC3)c3ccccc23)Oc2cc(O)cc(O)c21` [Example 157, 4,6-dihydroxy-2-{[2-phenyl-1-(2-pyrrolidin-1-ylethyl)-1H-indol-3-yl]methylene}-1-benzofuran-3(2H)-one]: the IC50 on PI3K-alpha is 1520 nM; on human TOR it was 2500 nM; at PI3K-gamma, 2430 nM.
The corresponding values for `O=C1C(=Cc2c(-c3ccccc3)n(CCC3CCNCC3)c3ccccc23)Oc2cc(O)cc(O)c21` [Example 158, 4,6-dihydroxy-2-{[2-phenyl-1-(2-piperidin-4-ylethyl)-1H-indol-3-yl]methylene}-1-benzofuran-3(2H)-one] are 2280 nM, 4600 nM and 4880 nM.
The corresponding values for `CN1CCN(CCn2c(-c3ccccc3)c(C=C3Oc4cc(O)cc(O)c4C3=O)c3ccccc32)CC1` [Example 159, 4,6-dihydroxy-2-({1-[2-(4-methylpiperazin-1-yl)ethyl]-2-phenyl-1H-indol-3-yl}methylene)-1-benzofuran-3(2H)-one] are 2860 nM, 1800 nM and 5120 nM.
The corresponding values for `O=C1C(=Cc2c[nH]c3ccc(O)cc23)Oc2cc(O)cc(O)c21` [Example 164, 4,6-dihydroxy-2-[(5-hydroxy-1H-indol-3-yl)methylene]-1-benzofuran-3(2H)-one] are 251 nM, 5200 nM and 3850 nM.
As to `O=C(O)c1ccc2[nH]cc(C=C3Oc4cc(O)cc(O)c4C3=O)c2c1` [Example 165, 3-[(4,6-dihydroxy-3-oxo-1-benzofuran-2(3H)-ylidene)methyl]-1H-indole-5-carboxylic acid], the IC50 on PI3K-alpha is 9500 nM; at human TOR, greater than 20000 nM; on PI3K-gamma it was greater than 10000 nM.
The corresponding values for `O=C1C(=Cc2c[nH]c3cccc(Cl)c23)Oc2cc(O)cc(O)c21` [Example 171, 2-[(4-chloro-1H-indol-3-yl)methylene]-4,6-dihydroxy-1-benzofuran-3(2H)-one] are 2030 nM, greater than 20000 nM and greater than 10000 nM.
The corresponding values for `O=C1C(=Cc2c[nH]c3c(Cl)cccc23)Oc2cc(O)cc(O)c21` [Example 173, 2-[(7-chloro-1H-indol-3-yl)methylene]-4,6-dihydroxy-1-benzofuran-3(2H)-one] are 766 nM, 17000 nM and greater than 10000 nM.
The corresponding values for `O=C1C(=Cc2c[nH]c3cccc(Br)c23)Oc2cc(O)cc(O)c21` [Example 174, 2-[(4-bromo-1H-indol-3-yl)methylene]-4,6-dihydroxy-1-benzofuran-3(2H)-one] are 1510 nM, 7100 nM and greater than 10000 nM.
Take `O=C1C(=Cc2c[nH]c3ccc(F)cc23)Oc2cc(O)cc(O)c21` [Example 175, 2-[(5-fluoro-1H-indol-3-yl)methylene]-4,6-dihydroxy-1-benzofuran-3(2H)-one]: the values for the IC50 at PI3K-alpha, at human TOR and on PI3K-gamma were 1040 nM, 9000 nM and greater than 10000 nM, respectively.
The corresponding values for `O=C1C(=Cc2c[nH]c3ccc(I)cc23)Oc2cc(O)cc(O)c21` [Example 177, 4,6-dihydroxy-2-[(5-iodo-1H-indol-3-yl)methylene]-1-benzofuran-3(2H)-one] are 187 nM, 9100 nM and 3360 nM.
On the same counts, the results for `N#Cc1ccc2[nH]cc(C=C3Oc4cc(O)cc(O)c4C3=O)c2c1` [Example 182, 3-[(4,6-dihydroxy-3-oxo-1-benzofuran-2(3H)-ylidene)methyl]-1H-indole-5-carbonitrile] are 1110 nM, 12000 nM and greater than 10000 nM.
Consider `Cn1cc(C=C2Oc3cc(O)cc(O)c3C2=O)c2c(C#N)cccc21` [Example 188, 3-[(4,6-dihydroxy-3-oxo-1-benzofuran-2(3H)-ylidene)methyl]-1-methyl-1H-indole-4-carbonitrile], for which the IC50 was 1800 nM on PI3K-alpha, 260 nM at human TOR and greater than 10000 nM against PI3K-gamma.
The corresponding values for `Cn1c(-c2cccnc2)c(C=C2Oc3cc(O)cc(O)c3C2=O)c2ccccc21` [Example 189, 4,6-dihydroxy-2-[(1-methyl-2-pyridin-3-yl-1H-indol-3-yl)methylene]-1-benzofuran-3(2H)-one] are 2710 nM, 140 nM and 11000 nM.
`Cn1c(-c2ccncc2)c(C=C2Oc3cc(O)cc(O)c3C2=O)c2ccccc21` [Example 190, 4,6-dihydroxy-2-[(1-methyl-2-pyridin-4-y1-1H-indol-3-yl)methylene]-1-benzofuran-3(2H)-one]: the results for the 50% inhibitory concentration (IC50) at PI3K-alpha, at human TOR and on PI3K-gamma were 2120 nM, 120 nM and 8540 nM, respectively.
On the same counts, the results for `Cn1c(-c2ccc(O)cc2)c(C=C2Oc3cc(O)cc(O)c3C2=O)c2ccccc21` [Example 193, 4,6-dihydroxy-2-{[2-(4-hydroxyphenyl)-1-methyl-1H-indol-3-yl]methylene}-1-benzofuran-3(2H)-one] are 1120 nM, 85 nM and 7660 nM.
The corresponding values for `Cn1c(-c2ccsc2)c(C=C2Oc3cc(O)cc(O)c3C2=O)c2ccccc21` [Example 194, 4,6-dihydroxy-2-{[1-methyl-2-(3-thienyl)-1H-indol-3-yl]methylene}-1-benzofuran-3(2H)-one] are 837 nM, 230 nM and 3290 nM.
On to `Cn1c(-c2cccc(F)c2)c(C=C2Oc3cc(O)cc(O)c3C2=O)c2ccccc21` [Example 197, 2-{[2-(3-fluorophenyl)-1-methyl-1H-indol-3-yl]methylene}-4,6-dihydroxy-1-benzofuran-3(2H)-one], for which the IC50 on PI3K-alpha came to 1100 nM; on human TOR it was 280 nM; at PI3K-gamma, 9160 nM.
On the same counts, the results for `Cn1c(-c2ccc(F)cc2)c(C=C2Oc3cc(O)cc(O)c3C2=O)c2ccccc21` [Example 200, 2-{[2-(4-fluorophenyl)-1-methyl-1H-indol-3-yl]methylene}-4,6-dihydroxy-1-benzofuran-3(2H)-one] are 1090 nM, 220 nM and 3070 nM.
The corresponding values for `Cn1c(-c2ccc(Cl)cc2)c(C=C2Oc3cc(O)cc(O)c3C2=O)c2ccccc21` [Example 201, 2-{[2-(4-chlorophenyl)-1-methyl-1H-indol-3-yl]methylene}-4,6-dihydroxy-1-benzofuran-3(2H)-one] are 712 nM, 120 nM and 5460 nM.
With `O=C1C(=Cc2c(-c3cccnc3)[nH]c3ccccc23)Oc2cc(O)cc(O)c21` [Example 202, 4,6-dihydroxy-2-[(2-pyridin-3-yl-1H-indol-3-yl)methylene]-1-benzofuran-3(2H)-one], the IC50 on PI3K-alpha is 1050 nM; at human TOR, 95 nM; on PI3K-gamma it was 7000 nM.
As to `O=C1C(=Cc2c(-c3ccncc3)[nH]c3ccccc23)Oc2cc(O)cc(O)c21` [Example 203, 4,6-dihydroxy-2-[(2-pyridin-4-yl-1H-indol-3-yl)methylene]-1-benzofuran-3(2H)-one], the values for the IC50 at PI3K-alpha, on human TOR and at PI3K-gamma were 1410 nM, 150 nM and 6620 nM, respectively.
On the same counts, the results for `Cc1noc(C)c1-c1[nH]c2ccccc2c1C=C1Oc2cc(O)cc(O)c2C1=O` [Example 204, 2-{[2-(3,5-dimethylisoxazol-4-yl)-1H-indol-3-yl]methylene}-4,6-dihydroxy-1-benzofuran-3(2H)-one] are 1160 nM, 190 nM and 6430 nM.

The values above are taken from patent publication US20090311217A1, “3-SUBSTITUTED-1H-INDOLE COMPOUNDS, THEIR USE AS MTOR KINASE AND PI3 KINASE INHIBITORS, AND THEIR SYNTHESES” (priority 2008, published 2009).
